This experiment deals with Glucose-6-phosphate 1-dehydrogenase (Homo sapiens, UniProt P11413). Nature of the experiment: Inhibition of human recombinant N-terminal His tagged G6PD expressed in Escherichia coli JM109 (DE3) cells assessed as production of NADPH after 30 mins by Amplite fluorimetric assay.

SMILES strings stand for the structures. Bounds are passed on as bounds.

Sequence of Glucose-6-phosphate 1-dehydrogenase (P11413 whole entry): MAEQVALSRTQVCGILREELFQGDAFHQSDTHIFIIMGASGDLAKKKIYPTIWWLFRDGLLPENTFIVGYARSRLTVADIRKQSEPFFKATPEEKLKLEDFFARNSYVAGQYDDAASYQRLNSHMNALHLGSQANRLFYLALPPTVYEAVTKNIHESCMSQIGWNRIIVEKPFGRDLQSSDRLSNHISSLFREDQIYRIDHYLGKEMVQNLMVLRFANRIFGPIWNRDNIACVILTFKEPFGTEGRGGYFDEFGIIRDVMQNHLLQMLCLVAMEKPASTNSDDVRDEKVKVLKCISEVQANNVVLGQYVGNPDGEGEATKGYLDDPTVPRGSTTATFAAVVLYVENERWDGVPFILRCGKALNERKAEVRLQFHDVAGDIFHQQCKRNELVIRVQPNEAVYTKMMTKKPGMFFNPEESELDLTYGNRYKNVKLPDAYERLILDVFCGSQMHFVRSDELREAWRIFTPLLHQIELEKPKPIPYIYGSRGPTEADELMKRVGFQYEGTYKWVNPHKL

For the molecule `C[C@]12CC[C@@H](O)C[C@@H]1CC[C@@H]1[C@@H]2CC[C@]2(C)C(=O)CC[C@@H]12` [ANDROSTERONE], the IC50 was above 200 µM. As for `CCS(=O)(=O)N[C@H]1CC[C@@]2(C)[C@@H](CC[C@@H]3[C@@H]2CC[C@]2(C)C(=O)CC[C@@H]32)C1`, the figure is 70.5 µM. With `C[C@]12CC[C@@H](NS(N)(=O)=O)C[C@@H]1CC[C@@H]1[C@@H]2CC[C@]2(C)C(=O)CC[C@@H]12`, the IC50 is above 200 µM.

As for `C[C@]12CC[C@H](O)CC1=CC[C@@H]1[C@@H]2CC[C@@]2(C)[C@H]1CC[C@@]21CCO1`, the IC50 is above 200 µM.

Take `COC(=O)N[C@H]1CC[C@@]2(C)[C@@H](CC[C@@H]3[C@@H]2CC[C@]2(C)[C@@H](C(=O)CO)CC[C@@H]32)C1`: the IC50 came to 41.6 µM. On to `CC(=O)N[C@H]1CC[C@@]2(C)[C@@H](CC[C@@H]3[C@@H]2CC[C@]2(C)C(=O)CC[C@@H]32)C1`, for which the IC50 came to 128 µM. As for `CC(=O)[C@H]1CC[C@H]2[C@@H]3CC[C@H]4C[C@@H](O)CC[C@]4(C)[C@H]3CC[C@]12C` [SEPRANOLONE], the figure is 4.3 µM. For the molecule `CC(=O)C[C@H]1CC[C@H]2[C@@H]3CC[C@H]4C[C@@H](O)CC[C@]4(C)[C@H]3CC[C@]12C`, the 50% inhibitory concentration (IC50) was above 200 µM. As for `CCNC(=O)NC1CC[C@@]2(C)[C@@H](CC[C@@H]3[C@@H]2CC[C@]2(C)[C@@H](C(=O)CO)CC[C@@H]32)C1` (some centres undefined), the figure is 34.9 µM; as for `C[C@]12CC[C@@H](N)C[C@@H]1CC[C@@H]1[C@@H]2CC[C@]2(C)C(=O)CC[C@@H]12`, above 200 µM; as for `C[C@]12CC[C@H](O)C[C@@H]1CC[C@@H]1[C@@H]2CC[C@@]2(C)[C@H]1CC[C@@]21CCO1`, above 200 µM. Take `C[C@]12CC[C@H](O)C[C@@H]1CC[C@@H]1[C@@H]2CC[C@@]2(C)[C@H]1CC[C@@]21CO1`: the IC50 was above 200 µM. Regarding `C[C@]12CC[C@H](O)C[C@@H]1CC[C@@H]1[C@@H]2CC[C@@]2(C)[C@H]1CC[C@]2(O)C(=O)CO`, the IC50 was found to be 5.2 µM. Regarding `C[C@]12CC[C@H](NS(C)(=O)=O)C[C@@H]1CC[C@@H]1[C@@H]2CC[C@]2(C)C(=O)CC[C@@H]12`, the IC50 came to 6.6 µM. As to `C[C@]12CC[C@H](O)CC1=CC[C@@H]1[C@@H]2CC[C@]2(C)C(=O)[C@H](O)C[C@@H]12`, the IC50 is 15.8 µM.

Take `C[C@]12CC[C@H]3[C@@H](CC=C4C[C@@H](O)CC[C@@]43C)[C@@H]1CC[C@@H]2C(=O)CO`: the IC50 is 5.3 µM.

As to `CC(=O)[C@H]1CC[C@H]2[C@@H]3CC[C@H]4C[C@@H](O)CC[C@]4(C)[C@H]3C(=O)C[C@]12C`, the IC50 turned out to be 15.8 µM.

`C[C@]12CC[C@H](O)CC1=CC[C@@H]1[C@@H]2CC[C@@]2(C)[C@H]1CC[C@@]21CO1`: the IC50 was above 200 µM. In the case of `CN(C)C(=O)N[C@H]1CC[C@@]2(C)[C@@H](CC[C@@H]3[C@@H]2CC[C@]2(C)C(=O)CC[C@@H]32)C1`, the IC50 is above 200 µM. Consider `CC(=O)[C@H]1CC[C@H]2[C@@H]3CC[C@H]4C[C@@H](N)CC[C@]4(C)[C@H]3CC[C@]12C`, for which the IC50 is above 200 µM. Regarding `CC(=O)[C@@]12O[C@@H]1C[C@H]1[C@@H]3CC[C@H]4C[C@@H](O)CC[C@]4(C)[C@H]3CC[C@@]12C`, the IC50 is above 200 µM. With `COC(=O)N[C@H]1CC[C@@]2(C)[C@@H](CC[C@@H]3[C@@H]2CC[C@]2(C)[C@@H](C(C)=O)CC[C@@H]32)C1`, the IC50 was above 200 µM. With `CCCCNC(=O)N[C@H]1CC[C@@]2(C)[C@@H](CC[C@@H]3[C@@H]2CC[C@]2(C)C(=O)CC[C@@H]32)C1`, the concentration for half-maximal inhibition (IC50) was 1.7 µM.

As for `C[C@]12CC[C@@H](NS(C)(=O)=O)C[C@@H]1CC[C@@H]1[C@@H]2CC[C@]2(C)C(=O)CC[C@@H]12`, the IC50 was above 200 µM. Consider `C[C@]12CC[C@H](NS(=O)(=O)c3ccccc3)C[C@@H]1CC[C@@H]1[C@@H]2CC[C@]2(C)C(=O)CC[C@@H]12`, for which the IC50 is 9.9 µM.

As for `C[C@]12CC[C@H](O)C[C@@H]1CC[C@H]1[C@@H]3CC[C@H](C(=O)CO)[C@@]3(C)CC(=O)[C@@H]12`, the IC50 was determined as 6.3 µM. Take `CCNC(=O)N[C@@H]1CC[C@@]2(C)[C@@H](CC[C@@H]3[C@@H]2CC[C@]2(C)C(=O)CC[C@@H]32)C1`: the IC50 is above 200 µM. With `CC(=O)N[C@H]1CC[C@@]2(C)[C@@H](CC[C@@H]3[C@@H]2CC[C@]2(C)[C@@H](C(C)=O)CC[C@@H]32)C1`, the IC50 is above 200 µM.

As for `CNC(=O)N[C@H]1CC[C@@]2(C)[C@@H](CC[C@@H]3[C@@H]2CC[C@]2(C)C(=O)CC[C@@H]32)C1`, the IC50 stood at 12.2 µM. As for `CC(=O)[C@H]1CC[C@H]2[C@@H]3CC[C@H]4C[C@@H](NS(=O)(=O)N(C)C)CC[C@]4(C)[C@H]3CC[C@]12C`, the figure is 37.8 µM; as for `C[C@]12CC[C@H](O)C[C@@H]1CC[C@@H]1[C@@H]2CC[C@]2(C)[C@@H](C(=O)CBr)CC[C@@H]12`, 2.5 µM; as for `C[C@]12CC[C@H](O)C[C@@H]1CC[C@@H]1[C@@H]2CC[C@]2(C)[C@@H](C(=O)CCl)CC[C@@H]12`, 9.3 µM. For `C[C@]12CC[C@@H](O)C[C@@H]1CC[C@@H]1[C@@H]2CC[C@]2(C)[C@@H](C(=O)CO)CC[C@@H]12`, the IC50 amounted to 31.6 µM. In the case of `C[C@]12CC[C@H](O)C[C@@H]1CC[C@@H]1[C@@H]2CC[C@]2(C)C(=O)[C@H](Br)C[C@@H]12` [16.ALPHA.-BROMOEPIANDROSTERONE], the IC50 worked out at 20.8 µM. Regarding `CC(=O)[C@H]1CC[C@H]2[C@@H]3CC[C@H]4C[C@@H](NS(=O)(=O)c5ccccc5)CC[C@]4(C)[C@H]3CC[C@]12C`, the IC50 amounted to 20.3 µM. `CC(=O)OCC(=O)[C@H]1CC[C@H]2[C@@H]3CC[C@H]4C[C@@H](O)CC[C@]4(C)[C@H]3CC[C@]12C`: the IC50 is above 200 µM.

In the case of `CO[C@]1(C(C)=O)CC[C@H]2[C@@H]3CC[C@H]4C[C@@H](O)CC[C@]4(C)[C@H]3CC[C@@]21C`, the IC50 is above 200 µM.

For `CC(=O)[C@@]1(O)CC[C@H]2[C@@H]3CC[C@H]4C[C@@H](O)CC[C@]4(C)[C@H]3C(=O)C[C@@]21C`, the IC50 stood at 47 µM.

Regarding `CC(=O)[C@H]1CC[C@H]2[C@@H]3CC[C@H]4C[C@@H](NC(=O)N(C)C)CC[C@]4(C)[C@H]3CC[C@]12C`, the IC50 was above 200 µM. For the molecule `CC(=O)[C@H]1CC[C@H]2[C@@H]3CC[C@H]4C[C@H](O)CC[C@]4(C)[C@H]3CC[C@]12C` [BREXANOLONE], the IC50 came out at 66 µM.

In the case of `C/C(=N/O)[C@H]1CC[C@H]2[C@@H]3CC[C@H]4C[C@@H](O)CC[C@]4(C)[C@H]3CC[C@]12C`, the IC50 was above 200 µM. As to `CC(=O)[C@H]1CC[C@H]2[C@@H]3CC[C@H]4C[C@@H](NC(N)=O)CC[C@]4(C)[C@H]3CC[C@]12C`, the IC50 was above 100 µM. On to `C[C@]12CCCC[C@@H]1CC[C@@H]1[C@@H]2CC[C@]2(C)C(=O)CC[C@@H]12`, for which the IC50 is above 200 µM. On to `C[C@]12CC[C@H](O)C[C@@H]1CC[C@@H]1[C@@H]2CC[C@]2(C)/C(=N/O)CC[C@@H]12`, for which the IC50 is above 200 µM.
